Measured values as given in patent publication US20240131032A1, “AN ACTIVITY-GUIDED MAP OF ELECTROPHILE-CYSTEINE INTERACTIONS IN PRIMARY HUMAN IMMUNE CELLS” (The Scripps Research Institute, priority 2019, published 2024).

System: primary human T cells
Assay: Multidimensional screen for inhibition of T cell activation (IL-2, IFN-γ secretion, CD25, CD69 expression)
Type: cell-based
Conditions: electrophilic compounds 10 μM each (DMF 50 μM), 24 h, anti-CD3/anti-CD28 activation
Procedure: FIG. 4A-4D is an overview of a multidimensional screen to identify elaborated electrophilic compounds that suppress T cell activation. FIG. 4A is a workflow for T-cell activation screen. Primary human T cells were treated with a focused library of elaborated electrophilic compounds (10 μM, structures of compounds in FIG. 12), a positive control immunosuppressive compound (DMF, 50 μM), or DMSO under TCR-stimulating conditions in 96-well plates pre-coated with 5 μg/mL αCD3 and 2 μg/mL αCD28 for 24 h. T cell activation was measured using a combination of markers, including IL2 and IFNγ secretion, as well as surface expression of CD25 and CD69. T cell viability was measured by flow cytometry using a Fixable Near-IR LIVE/DEAD™ Cell Stain. Compounds were considered as active hits if they reduced IL2 cytokine production by >65% with <15% reduction in T cell viability in the cytotoxicity assay compared to DMSO control. […]
The levels of secreted IL2, IFNγ and TNFα after incubating T cells in the presence of DMSO or electrophilic compounds under TCR-stimulating conditions were measured using DuoSet ELISA cytokine kits (R&D Systems) in clear microplates (R&D Systems) according to manufacturer's instructions and read using a CLARIOstar (BMG Labtech) plate reader (450 nm). All cytokine concentrations were calculated according to the standard curve generated for each experiment.

SMILES: COC(=O)/C=C/C(=O)OC [DMF, reference compound]
- suppress T cell activation: > 65%
